≈ marks a conversion by molar mass, not a printed value. Read-outs that look alike come from different tables or passages of the source. One block for each compound: values may come before it.
Columns and labels:
[1] = system: V79 Chinese hamster lung cells; experiment: MTT cytotoxicity assay; type: cell-based; conditions: Cricetulus griseus, V 79 normal cells, 72 h
Procedure: Both lines were obtained from American Type Culture Collection (ATCC, Rockville, MD, USA). The culture used to grow the SW 620 cells was prepared in MEM (ThermoSci, Waltham, MA, USA). The V79 cells were cultured in RPMI (Biowest SAS, Nuaillé, France) with the addition of 20 mM HEPES (Biowest, Nuaillé, France), 10% fetal bovine serum (FBS, Sigma-Aldrich, St. Louis, MO, USA), 100 µg/mL of streptomycin, and 100 U/mL of penicillin (Gibco, Grand Island, NY, USA). The eligible level of cells confluence was 80–90%, and both cell cultures were maintained in a humidified incubator set at 37 °C with 5% CO2 until they reached it.
The MTT assay was used to establish the cytotoxic activity of the studied compounds. The mechanism of this method relies on enzymatic conversion of 3-(4,5-dimethylthiazol-2-yl)-2,5-diphentyltetrazolium bromide salt (MTT) into insoluble formazan crystals by mitochondrial dehydrogenases within viable cells.
The process starts with the preparation of 96-well plates by placing cells at a density of 1 × 10^4 per well and incubating them for 24 h to adhere. Afterwards, the cells were treated with different concentrations of thiosemicarbazide derivatives, from 20 to 100 µM, except the control group which remained not exposed. Next, cells were incubated for 72 h at 37 °C with a 5% CO2. Then, a solution of MTT (0.5 mg/mL) was added to each well and plates were incubated for 4 h more in the same conditions.
To dissolve precipitated formazan crystals, a mixture of DMSO and isopropanol (in a 1:1 ratio, v/v) was used. For the spectrophotometric survey, we used MultiscanGo from Thermo Scientific with the wavelength value set at 570 nm to measure absorbance.
Cell viability was determined as the percentage of MTT reduction in the treated cells compared to the control group (unexposed cells). The relative MTT level, represented as a percentage, was calculated using the formula [A]/[B] × 100, where [A] stands for the absorbance of the treated cell sample and [B] for the absorbance of unexposed to studied compounds sample (control group). […] To calculate IC50 values (concentration at which 50% of cell viability is inhibited), we used GraphPad Prism 8.0.1 software.

[2] = system: SW 620 human metastatic colon cancer cells; experiment: MTT cytotoxicity assay; type: cell-based; conditions: Homo sapiens; SW 620, MTT, 72 h
Procedure: Both lines were obtained from American Type Culture Collection (ATCC, Rockville, MD, USA). The culture used to grow the SW 620 cells was prepared in MEM (ThermoSci, Waltham, MA, USA). The V79 cells were cultured in RPMI (Biowest SAS, Nuaillé, France) with the addition of 20 mM HEPES (Biowest, Nuaillé, France), 10% fetal bovine serum (FBS, Sigma-Aldrich, St. Louis, MO, USA), 100 µg/mL of streptomycin, and 100 U/mL of penicillin (Gibco, Grand Island, NY, USA). […] The MTT assay was used to establish the cytotoxic activity of the studied compounds. […] The process starts with the preparation of 96-well plates by placing cells at a density of 1 × 10^4 per well and incubating them for 24 h to adhere. […] Next, cells were incubated for 72 h at 37 °C with a 5% CO2. Then, a solution of MTT (0.5 mg/mL) was added to each well and plates were incubated for 4 h more in the same conditions. To dissolve precipitated formazan crystals, a mixture of DMSO and isopropanol (in a 1:1 ratio, v/v) was used. […] Cell viability was determined as the percentage of MTT reduction in the treated cells compared to the control group (unexposed cells). The relative MTT level, represented as a percentage, was calculated using the formula [A]/[B] × 100, where [A] stands for the absorbance of the treated cell sample and [B] for the absorbance of unexposed to studied compounds sample (control group).

[3] = system: Bacillus cereus ATCC 10876; experiment: Broth microdilution MIC / MBC; type: cell-based; conditions: ATCC10876, B. cereus ATCC 10876
Procedure: (§1) The microdilution method was used to determine the MIC values of newly synthesized compounds. The antimicrobial activity of the thiosemicarbazides series was tested on ten reference bacterial strains purchased from the American Type Culture Collection (ATCC). Seven Gram-positive reference strains (S. aureus ATCC 29213, S. aureus ATCC 43300, S. aureus ATCC 6538, S. aureus ATCC 25923, S. epidermidis ATCC 12228, M. luteus ATCC 10240, and B. cereus ATCC 10876) and three Gram-negative reference bacteria (K. pneumoniae ATCC 13883, E. coli ATCC 25922, S. typhimurium ATCC 14028) were used. These bacterial strains are representatives of microorganisms that can cause the most common opportunistic infections among humans. The bacteria were grown on Mueller–Hinton agar (MHA) plates before examination. To perform the assay, all bacteria were placed in sterile saline (0.85% NaCl) to obtain a suspension of the optical density of the 0.5 McFarland standard (1.50 × 10^8 colony-forming units (CFUs)/mL). A solution of the tested compounds was prepared in dimethyl sulfoxide (DMSO) at a concentration of 50 mg/mL as a stock solution.
(§2) A 96-well microtiter plate and microbroth two-fold dilution method was used to determine the minimum inhibitory concentration (MIC) according to the EUCAST (European Committee on Antimicrobial Susceptibility Testing) reference recommendation. The solutions were then diluted with Mueller–Hinton broth (MHB, Biomaxima, Lublin, Poland) medium to obtain a solution with a basic concentration of 1000 µg/mL. Then, using the two-fold dilution method with MHB, the tested compounds were introduced into the wells of the microplate to provide a final concentration in the range of 0.49 to 1000 µg/mL. Then, 2 μL of bacterial inoculum with a density of 0.5 McFarland standard was added into each well. Each well was filled with a total volume of 100 μL. Then, microtiter plates were incubated for 18 ± 2 h at 35 °C. After incubation, the growth of bacteria was monitored by a Biotek ELx800 (Biokom, Janki, Poland) spectrophotometer at 600 nm (OD600). The MIC assays were performed in triplicate.
(§3) A negative control with MHB and without tested compounds was used. Clinically used anti-bacterial agents, cefuroxime and vancomycin, were included as positive controls for the purpose of comparison in a concentration range from 0.007 to 15.625 µg/mL.
(§4) The in vitro antimicrobial activity of the tested compounds was determined by the MIC, which was defined as the lowest concentration of the compound tested at which no visible growth of the test bacteria was observed. The MBC (the minimum bactericidal concentration) is defined as the lowest concentration of antimicrobial agent resulting in reduction in the viability of the initial bacterial inoculum by ≥99.9% on the plate. Generally, an MBC/MIC ratio less than 4 is considered bactericidal for an antimicrobial, and an MBC/MIC > 8 is indicative of bacteriostatic activity. For the MBC test, the Mueller–Hinton agar (MHA, Biomaxima, Poland) plate assay was used. MBC was determined after the broth dilution period of an MIC test has been completed. After the MIC detection, 5 µL aliquots from each well were plated on an MHA plate and grown at 35 °C overnight. The MBC values were determined by observing the first clear area on the agar plate that has no observable bacterial growth.

[4] = system: Staphylococcus epidermidis ATCC 12228; experiment: Broth microdilution MIC / MBC; type: cell-based; conditions: ATCC12228, S. epidermidis ATCC 12228
Procedure: as §1, §2, §3, §4

[5] = system: Staphylococcus aureus ATCC 25923; experiment: Broth microdilution MIC / MBC; type: cell-based
Procedure: as §1, §2, §3, §4

[6] = system: Staphylococcus aureus ATCC 6538; experiment: Broth microdilution MIC / MBC; type: cell-based; conditions: ATCC6538, S. aureus ATCC 6538
Procedure: as §1, §2, §3, §4

[7] = system: Micrococcus luteus ATCC 10240; experiment: Broth microdilution MIC / MBC; type: cell-based; conditions: ATCC10240, M. luteus ATCC 10240
Procedure: as §1, §2, §3, §4

[8] = system: Rhabditis sp.; design: method as in PMID 35408557; conditions: reference drug; cited from earlier work
[9] = system: Staphylococcus aureus ATCC 43300; experiment: Broth microdilution MIC / MBC; type: cell-based; conditions: ATCC 43300 / MRSA
Procedure: as §1, §2, §3, §4

Compound: COc1cccc2c1C(=O)c1c(O)c3c(c(O)c1C2=O)C[C@@](O)(C(=O)CO)C[C@@H]3O[C@H]1C[C@H](N)[C@H](O)[C@H](C)O1 [Ref, Doxorubicin, reference compound]
IC50 [1]: 460 ± 30 nM
IC50 [2]: 1830 ± 100 nM

MIC [3]: 31.2 µg/mL (≈ 73.6 µM)
MIC [4]: 0.25 µg/mL (≈ 0.589 µM)
MIC ([5]; ATCC25923, S. aureus ATCC 25923, read-out: MIC): 0.49 µg/mL (≈ 1.15 µM)
MIC [6]: 0.98 µg/mL (≈ 2.31 µM)
MIC [7]: 0.25 µg/mL (≈ 0.589 µM)
Compound: CO/N=C(\C(=O)N[C@@H]1C(=O)N2C(C(=O)O)=C(COC(N)=O)CS[C@H]12)c1ccco1 [Cef, cefuroxime, reference compound]

Compound: CCCSc1ccc2nc(NC(=O)OC)[nH]c2c1 [albendazole]
LC50 [8]: 19200 µg/mL (≈ 72500 µM)

Compound: CN[C@H](CC(C)C)C(=O)N[C@H]1C(=O)N[C@@H](CC(N)=O)C(=O)N[C@H]2C(=O)N[C@H]3C(=O)N[C@H](C(=O)N[C@H](C(=O)O)c4cc(O)cc(O)c4-c4cc3ccc4O)[C@H](O)c3ccc(c(Cl)c3)Oc3cc2cc(c3O[C@@H]2O[C@H](CO)[C@@H](O)[C@H](O)[C@H]2O[C@H]2C[C@](C)(N)[C@H](O)[C@H](C)O2)Oc2ccc(cc2Cl)[C@H]1O [Van, vancomycin, reference compound]
MBC [9]: 2 µg/mL (≈ 1.38 µM)
MIC [9]: 2 µg/mL (≈ 1.38 µM)
MBC ([5]; ATCC25923): 2 µg/mL (≈ 1.38 µM)
MIC ([5]; ATCC25923): 2 µg/mL (≈ 1.38 µM)
